Values of other authors as cited in patent US4351830A (priority 1980, dated 1982).

Key:
[1] = literature
bacterial infections = conditions: literature

Molecule: CC(=O)N[C@H]1C(O)O[C@H](CO)[C@@H](O)[C@@H]1O[C@H](C)C(=O)N[C@@H](C)C(=O)N[C@H](CCC(N)=O)C(=O)O (stereo partly drawn) [N-acetylmuramyl-L-alanyl-D-glutamine]
- adjuvant effect [1]: high adjuvant effect

Molecule: orthobenzoic acid oxide
- protective activity against bacterial infections (bacterial infections): exhibits a protective activity against bacterial infections

Molecule: CC(=O)N[C@H]1C(O)O[C@H](CO)[C@@H](O)[C@@H]1O[C@H](C)C(=O)N[C@@H](C)C(=O)N[C@H](CCC(=O)O)C(N)=O (stereo partly drawn) [N-acetylmuramyl-L-alanyl-D-isoglutamine]
- adjuvant effect [1]: high adjuvant effect
